In test [1] the target is T1, HSD17B13 enzyme (Homo sapiens, UniProt Q7Z5P4).
T1 construct: His; made in house; host or cells: E. coli
T1 sequence (Q7Z5P4 20-300): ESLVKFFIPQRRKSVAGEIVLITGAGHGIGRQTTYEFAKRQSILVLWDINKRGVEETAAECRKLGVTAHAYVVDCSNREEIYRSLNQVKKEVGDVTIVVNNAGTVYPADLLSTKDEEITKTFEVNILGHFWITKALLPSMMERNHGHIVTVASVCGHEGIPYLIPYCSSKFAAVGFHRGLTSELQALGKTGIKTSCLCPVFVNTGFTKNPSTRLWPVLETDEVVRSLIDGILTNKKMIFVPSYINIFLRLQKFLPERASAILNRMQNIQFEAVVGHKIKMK
In words: NADH detection assay (fluorescence based Leukotriene B3 (LTB3) assay) for HSD17B13 activity. Type of test: biochemical. Conditions: substrate 25 μM LTB3, 3 mM NAD+, 125 nM HSD17B13 enzyme, 1 hour at 26.5° C. The protocol: The fluorescence based Leukotriene B3 (LTB3) assay monitors the fluorescence of NADH, which is generated from NAD+ during the dehydrogenation of the substrate LTB3. The reactions were performed in a 384-well plates (Greiner; #655076) in a 20 μl reaction volume containing the following reagents (final concentrations): 25 μM LTB3 (Cayman; #20109); 3 mM NAD^+ (Sigma; #N0623); 125 nM HSD17B13 enzyme (in-house; E. coli expressed His-tagged, purified, soluble protein); 1 M potassium phosphate buffer, pH 7.4; and 1% DMSO. Reactions were initiated by co-addition of NAD+ and enzyme, and monitored for 1 hour at 26.5° C. Generation of NADH was measured as the fluorescence signal (Excitation at 340 nm and Emission at 445 nm) at 1 hour minus the baseline fluorescence at t=0. Fluorescence signals in the absence of LTB3 (negative control values), were subtracted from all values so that the results reflected substrate-dependent production of NADH. NADH standards were included to allow the conversion of relative fluorescence units into rates of enzyme activity. Enzyme activity in the presence of test compounds was expressed as a percentage of the uninhibited enzyme activity, and plotted versus inhibitor concentration. Non-linear regression was performed using a four-parameter logistic model and Microsoft Excel Solver® software. Ten concentrations of inhibitor were tested in duplicate (in the range of 30 μM-2.5 nM). Two independent concentration response assays were performed and the geometric mean is reported, =/−the SEM.

The target in test [2] is T1, HSD17B13 enzyme. In words: LC/MS estrone detection assay (conversion of estradiol to estrone by HSD17B13). Conditions: substrate 4 μM estradiol, 6 mM NAD+, 30 nM HSD17B13 enzyme, 2 hours at 26.5° C. It is filed as biochemical. The protocol: The liquid chromatography/mass spectrometry (LC/MS) estrone detection assay monitors the conversion of estradiol to estrone by HSD17B13. This assay was performed in a 96 wp format (Eppendorf deep well Plate 96/500) in an 80 μl reaction volume containing: 4 μM estradiol (E2; Cayman; Ser. No. 10/006,315); 6 mM NAD^+ (Sigma; #N0623), and 30 nM HSD17B13 enzyme (in-house; E. coli expressed His-tagged, purified, soluble protein), in a buffer containing 1M potassium phosphate buffer pH 7.4 and 0.5% vehicle (DMSO). Reactions were incubated for 2 hours at 26.5° C., and estradiol (E2) conversion to estrone (E1) was quantitated by LC-MS/MS based analyte detection for E1 using LCMS grade reagents. Reactions were terminated by the addition of two volumes of acetonitrile (MeCN; LCMS grade; CAS #75/05/8) containing deuterated (D4)-E1 as internal standard (Clear Synth; #CS-T-54273; 500 ng/mL final concentration). Samples were applied to pre-prepared Bond Elut-C18 extraction cartridges (3 mL; Agilent; Ser. No. 12/102,028), and washed and eluted in MeCN. Eluates were dried under nitrogen and re-suspended in 60% methanol (LCMS grade methanol; CAS #67/56/1) before submission for analysis. Standard curves for E1 were included for quantification. Analysis of samples was undertaken on a XBridge BEH C18 column (Waters; #186003033) using 0.1% Diethyl Amine in MeCN (mobile phase A; DEA CAS #109-89-7) and 0.1% Diethyl Amine in milli-Q water (mobile phase B) in a 3 min gradient up to 25% B. Analytes were detected in negative mode using MRM analysis, with E2 having a RT of 1.85 min and E1 having a RT of 2 min. Activity of the enzyme in the absence of NAD^+, was subtracted from samples to yield values for specific enzyme activity. Enzyme activity in the presence of test samples was expressed as a percentage of the uninhibited enzyme activity, and plotted versus inhibitor concentration. Non-linear regression was performed using the Morrison equation (see below) for tight binding inhibitors on GraphPad Prism software (GraphPad Software, La Jolla, Calif.). All assessments were undertaken in duplicate evaluations which were pooled during the extraction process and subsequently injected as duplicates for LC-MS/MS analysis. Y=Vo*(1−((((Et+X+Q)−(((Et+X+Q)^2)−4*Et*X)^0.5))/(2*Et))) Morrison equation:
Y=Activity in the presence of inhibitor; Vo=Activity in absence of inhibitor; Et=Total enzyme concentration; X=inhibitor concentration; and Q=(Ki*(1+(S/Km))), where Ki is the inhibition constant, Km is the Michaelis constant, and S is the substrate concentration.

This is an account of results in US12673930B2, “Thiophene HSD17B13 inhibitors and uses thereof” (INIPHARM, INC., priority 2020, dated 2026).

As a reminder, the IC50 is the concentration that gives 50% inhibition. Read a low IC50 as greater potency.

Take `CC(C)(C)CCNC(=O)c1sccc1NC(=O)c1ccc(O)c(Cl)c1` [Example 3, 3-(3-chloro-4-hydroxybenzamido)-N-(3,3-dimethylbutyl)thiophene-2-carboxamide]: the figures for the half-maximal inhibitory concentration (IC50) at HSD17B13 enzyme [1] and at HSD17B13 enzyme [2] were no more than 1000 nM and no more than 100 nM, respectively.

`O=C(Nc1ccsc1C(=O)NCc1c[nH]c2ccccc12)c1ccc(O)c(Cl)c1` [Example 4, N-((1H-indol-3-yl)methyl)-3-(3-chloro-4-hydroxybenzamido)thiophene-2-carboxamide]: the IC50 at HSD17B13 enzyme [1] is no more than 1000 nM; against HSD17B13 enzyme [2], no more than 100 nM.

As to `CCNC(=O)c1sccc1NC(=O)c1ccc(O)c(Cl)c1` [Example 5, 3-(3-chloro-4-hydroxybenzamido)-N-ethylthiophene-2-carboxamide], the figures for the IC50 on HSD17B13 enzyme [1] and on HSD17B13 enzyme [2] were no more than 1000 nM and 100 to 1000 nM, respectively.

`O=C(Nc1ccsc1C(=O)NC1COc2ccccc2C1)c1ccc(O)c(Cl)c1` (stereo not shown) [Example 6, 3-(3-chloro-4-hydroxybenzamido)-N-(chroman-3-yl)thiophene-2-carboxamide]: the IC50 was no more than 1000 nM against HSD17B13 enzyme [1] and no more than 100 nM against HSD17B13 enzyme [2].

With `COc1ccncc1CCNC(=O)c1sccc1NC(=O)c1ccc(O)c(Cl)c1` [Example 7, 3-(3-chloro-4-hydroxybenzamido)-N-(2-(4-methoxypyridin-3-yl)ethyl)thiophene-2-carboxamide], the values for the IC50 against HSD17B13 enzyme [1] and on HSD17B13 enzyme [2] were no more than 1000 nM and 100 to 1000 nM, respectively.

Consider `COc1ccccc1CNC(=O)c1sccc1NC(=O)c1ccc(O)c(Cl)c1` [Example 8, 3-(3-chloro-4-hydroxybenzamido)-N-(2-methoxybenzyl)thiophene-2-carboxamide], for which the values for the IC50 against HSD17B13 enzyme [1] and at HSD17B13 enzyme [2] were no more than 1000 nM and no more than 100 nM, respectively.

With `O=C(Nc1ccsc1C(=O)NCCc1ccccc1F)c1ccc(O)c(Cl)c1` [Example 9, 3-(3-chloro-4-hydroxybenzamido)-N-(2-fluorophenethyl)thiophene-2-carboxamide], the 50% inhibitory concentration (IC50) against HSD17B13 enzyme [1] was no more than 1000 nM; against HSD17B13 enzyme [2], no more than 100 nM.

For the compound `COc1ccccc1CCNC(=O)c1sccc1NC(=O)c1ccncc1` [Example 10, N-(2-((2-methoxyphenethyl)carbamoyl)thiophen-3-yl)isonicotinamide], the IC50 on HSD17B13 enzyme [1] and on HSD17B13 enzyme [2] was greater than 10000 nM each time.

For `COc1ccccc1CCNC(=O)c1sc2nccnc2c1NC(=O)c1ccc(O)c(Cl)c1` [Example 12, 7-(3-chloro-4-hydroxybenzamido)-N-(2-methoxyphenethyl)thieno[2,3-b]pyrazine-6-carboxamide], the IC50 at HSD17B13 enzyme [1] fell in the range of 1000 to 5000 nM; against HSD17B13 enzyme [2], 100 to 1000 nM.

Take `COc1ccccc1CCNC(=O)c1ccsc1NC(=O)c1ccc(O)c(Cl)c1` [Example 13, 2-(3-chloro-4-hydroxybenzamido)-N-(2-methoxyphenethyl)thiophene-3-carboxamide]: the IC50 at HSD17B13 enzyme [1] was no more than 1000 nM; against HSD17B13 enzyme [2] it was no more than 100 nM.

In the case of `COc1ccccc1CCNC(=O)c1c(NC(=O)c2ccc(O)c(Cl)c2)sc2c1CCCC2` [Example 14, 2-(3-chloro-4-hydroxybenzamido)-N-(2-methoxyphenethyl)-4,5,6,7-tetrahydrobenzo[b]thiophene-3-carboxamide], the IC50 against HSD17B13 enzyme [1] is 1000 to 5000 nM; against HSD17B13 enzyme [2], 100 to 1000 nM.

Consider `COc1ccccc1CCNC(=O)c1c(NC(=O)c2ccc(O)c(F)c2)sc(C)c1C` [Example 16, 2-(3-fluoro-4-hydroxybenzamido)-N-(2-methoxyphenethyl)-4,5-dimethylthiophene-3-carboxamide], for which the IC50 against HSD17B13 enzyme [1] was no more than 1000 nM; against HSD17B13 enzyme [2] it was no more than 100 nM.

Take `COc1ccccc1CCNC(=O)c1sc(Cl)cc1NC(=O)c1ccc(O)c(Cl)c1` [Example 17, 5-chloro-3-(3-chloro-4-hydroxybenzamido)-N-(2-methoxyphenethyl)thiophene-2-carboxamide]: the figures for the IC50 against HSD17B13 enzyme [1] and at HSD17B13 enzyme [2] were no more than 1000 nM and no more than 100 nM, respectively.

Consider `CC(C)(C)CCNC(=O)c1sccc1NC(=O)c1cc(F)c(O)c(F)c1` [Example 18, 3-(3,5-difluoro-4-hydroxybenzamido)-N-(3,3-dimethylbutyl)thiophene-2-carboxamide], for which the IC50 on HSD17B13 enzyme [1] was no more than 1000 nM; at HSD17B13 enzyme [2] it was no more than 100 nM.
